Measurements reported in US20040138198A1, “Vasectomy procedure and related kit” (priority 2001, published 2004).

Assays:
vasa deferentia = details: rat, in vivo
Protocol: A dose ranging non-GLP study was conducted in rats to determine the local toxic effect of diltiazem on vasa deferentia.

sperm in vas = experiment: non-GLP study, in vivo effect on motility and viability of sperm in vas; details: injection, 0.2 mg/kg body weight; saline injected controls 35%
From the text: In another non-GLP study, the in vivo effect of diltiazem on motility and viability of sperm in vas was observed.

With `COc1ccc([C@@H]2Sc3ccccc3N(CCN(C)C)C(=O)[C@@H]2OC(C)=O)cc1` [diltiazem] the “changes in the histology of the vas” value (vasa deferentia; 0.2 mg/kg) was “did not cause any changes in the histology of the vas”, the “effect on the vas” value (vasa deferentia; 2 mg/kg) was “no effect on the vas” and the mortality of rats (vasa deferentia; 50 mg/kg) was “no mortality”. For the same molecule, the “percentage of non-viable sperm” value (sperm in vas) was 92%.
